The values that follow come from patent US10864211B2, “Hydroxy isoxazole compounds useful as GPR120 agonists” (Merck Sharp & Dohme Corp., priority 2016, dated 2020).

SMILES strings stand for the structures. Where a name gives a salt, the structure may show the parent alone.

The assay has as its target T1, rat GPR120 (Rattus norvegicus, UniProt Q2AC31).
T1 construct: expressed in transfected cells; host or cells: HEK293
T1 sequence (Q2AC31 1-361): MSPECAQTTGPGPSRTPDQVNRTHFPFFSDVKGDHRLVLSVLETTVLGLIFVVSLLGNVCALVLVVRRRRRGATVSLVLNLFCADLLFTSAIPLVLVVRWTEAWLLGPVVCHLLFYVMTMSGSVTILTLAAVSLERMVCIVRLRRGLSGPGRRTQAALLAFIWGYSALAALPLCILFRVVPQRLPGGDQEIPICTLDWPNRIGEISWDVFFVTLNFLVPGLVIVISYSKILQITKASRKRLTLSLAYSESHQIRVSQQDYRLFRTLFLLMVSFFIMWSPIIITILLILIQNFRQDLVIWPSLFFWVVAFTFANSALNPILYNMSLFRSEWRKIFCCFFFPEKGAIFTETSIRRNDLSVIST
Put plainly: Rat GPR120 IP1 assay (inositol phosphate turnover). It counts as cell-based. Particulars: IP1 accumulation in HEK293 cells stably expressing rat GPR120. An excerpt:
The binding of small molecule agonists to the G-protein-coupled receptor GPR120 activates phospholipase C, and leads to the generation of inositol 1,4,5-trisphosphate (InsP3 or IP3). IP3 is subsequently de-phosphorylated to IP1, which accumulates in cells and is stable in the presence of lithium chloride.
In the present method, agonist-induced activation of the human and rat GPR120 receptor was monitored by measuring the accumulation of IP1 in CHO-K1 cells that were stably expressing the short form of human GPR120 (Accession #NM_001195755) or HEK293 cells stably expressing rat GPR120 (Accession #NM_001047088). Following agonist addition, GPR120 activation and subsequent accumulation of IP1 was measured using a homogeneous Time Resolved Fluorescence-based ELISA commercially available from CisBio (IP-one ELISA Kit). The IP-One ELISA was a competitive immunoassay which uses IP1 labeled with […] and a terbium cryptate-labeled anti-IP1 monoclonal antibody. […] The signal loss was then back calculated to IP1 concentration using an IP1 standard curve. Determination of IP1 concentration was a direct measure of GPR120 activation and was used to determine compound potency (EC50).
Human GPR120 stable cell-lines were generated in CHO cells. The expression plasmids were transfected using lipofectamine (Life Technologies) following manufacturer's instructions. Stable cell-lines were generated following drug selection and single cell cloning. Rat GPR120 stable cell-lines were generated in HEK cells using the Jump-In™ cell engineering platform (Life Technologies) following manufacturer's instructions. Stable cell-lines were generated following drug selection and single cell cloning.
The assay was performed in 384-well format. CHO cells stably expressing human GPR120 were plated at 20,000 cells per well in growth medium (DMEM/F12, 10% fetal calf serum). HEK293 cells stably expressing rat GPR120 were plated at […] per well in growth medium (DMEM, 10% fetal calf serum). Cell plates were then incubated 16 hours at 37 degrees in a 5% CO2 incubator. Measurement of Inositol Phosphate Turnover (IP1) was performed using the CisBio IP-One kit (Part number 62IPAPEB). After the 16 hour incubation, the growth media was removed by centrifugation using the BlueWasher (AusWasher GUI Ver. v1.0.1.8) Protocol #21-“Light Dry” and 10 μl of stimulation buffer (prepared as described in the kit) was added to each well. In a separate plate, compounds were diluted in DMSO (200-fold over the final concentration in the assay well) and 50 nl was acoustically transferred to the appropriate well in the assay cell plate. The plates were then incubated for 60 minutes at 37 degrees in a 5% CO2 incubator. 10 μl of detection buffer (also prepared as described in the IP-One kit) was added to each well and the plates were incubated at room temperature for 60 minutes in the dark. The plates were then read in a Perkin ElmerEnVision or equivalent reader able to measure FRET. Fluorescent ratio of emission at 665 and 620 nm was then converted to the IP1 concentration by back calculating from an IP1 standard curve prepared at the time of the assay. The data was normalized to % activity using a reference compound, and the EC50 values were determined using a standard 4-parameter fit.
In general, EC50 refers to the concentration at which the effect is half-maximal. Consider `Oc1cc(-c2ccc(O[C@H]3C[C@H](c4ccc(F)cc4)C3)cc2)on1` [Example 12, 5-(4-{[trans-3-(4-fluorophenyl)cyclobutyl]oxy}phenyl)isoxazol-3-ol], for which the EC50 was 1.5 nM.

`Oc1cc(-c2ccc(O[C@H]3C[C@H](c4ccc(C(F)(F)F)cn4)C3)nc2)on1` [Example 23, 5-[6-({trans-3-[5-(trifluoromethyl)pyridin-2-yl]cyclobutyl}oxy)pyridin-3-yl]isoxazol-3-ol]: a half-maximal response (EC50) required 100 nM.

In the case of `Oc1cc(-c2cnc(O[C@H]3C[C@H](Oc4cccc(OC(F)(F)F)c4)C3)cn2)on1` [Example 61, sodium 5-[5-({trans-3-[3-(trifluoromethoxy)phenoxy]-cyclobutyl}oxy)pyrazin-2-yl]isoxazol-3-olate], the midpoint of the response, the EC50, lay at 1.8 nM.

`Oc1cc(-c2ccc(O[C@H]3C[C@](F)(c4ccnc(OC5CCC5)c4)C3)nc2)on1` [Example 87, sodium 5-[6-({cis-3-[2-(cyclobutyloxy)pyridin-4-yl]-3-fluorocyclobutyl}oxy)pyridin-3-yl]isoxazol-3-olate] displayed an EC50 of 4.7 nM.

In turn, `Oc1cc(-c2ccc(O[C@H]3C[C@@](F)(c4ccnc(OC5CCC5)c4)C3)nc2)on1` [Example 88, 2-(cyclobutyloxy)-4-(trans-1-fluoro-3-{[5-(3-hydroxyisoxazol-5-yl)pyridinium-2-yl]oxy}cyclobutyl)pyridinium bis(trifluoroacetate)] returned an EC50 of 42.2 nM.

Take `Oc1cc(-c2cnc(O[C@H]3C[C@](F)(c4ccnc(OC5CC5)c4)C3)cn2)on1` [Example 91, ammonium 5-[5-({cis-3-[2-(cyclopropyloxy)pyridin-4-yl]-3-fluoro-cyclobutyl}oxy)pyrazin-2-yl]isoxazol-3-olate]: the midpoint of the response, the EC50, lay at 36 nM.

In turn, `CCOc1cc([C@]2(F)C[C@@H](Oc3cnc(-c4cc(O)no4)cn3)C2)ccn1` [Example 94, 5-(5-{[cis-3-(2-ethoxypyridin-4-yl)-3-fluorocyclobutyl]oxy}pyrazin-2-yl)isoxazol-3-ol] displayed an EC50 of 890 nM.

As to `Oc1cc(-c2cnc(O[C@H]3C[C@@](F)(c4ccnc(OC5CCC5)c4)C3)cn2)on1` [Example 95, 5-[5-({trans-3-[2-(cyclobutyloxy)pyridin-4-yl]-3-fluorocyclobutyl}oxy)pyrazin-2-yl]isoxazol-3-ol], the EC50 was 18 nM.

For the molecule `Oc1cc(-c2cnc(O[C@H]3C[C@](F)(c4ccnc(OC5CCC5)c4)C3)cn2)on1` [Example 96, sodium 5-[5-({cis-3-[2-(cyclobutyloxy)pyridin-4-yl]-3-fluorocyclobutyl}oxy)pyrazin-2-yl]isoxazol-3-olate], the response was half-maximal at 33 nM (EC50).

The molecule `Oc1cc(-c2cnc(O[C@H]3C[C@@](F)(c4nc(C(F)(F)F)cs4)C3)cn2)on1` [Example 102, ammonium 5-[5-({trans-3-fluoro-3-[4-(trifluoromethyl)-1,3-thiazol-2-yl]cyclobutyl}oxy)pyrazin-2-yl]isoxazol-3-olate] had an EC50 of 1160 nM.

`Oc1cc(-c2ccc(O[C@H]3C[C@H](c4ccc(Cl)cc4)C3)cn2)on1` [Example 110, 5-{[trans-3-(4-chlorophenyl)cyclobutyl]oxy}-2-(3-hydroxyisoxazol-5-yl)pyridinium trifluoroacetate] returned an EC50 of 1.1 nM.

For `Oc1cc(-c2ccc(O[C@H]3C[C@@H](c4ccc(Cl)cc4)C3)cn2)on1` [Example 111, 5-{[cis-3-(4-chlorophenyl)cyclobutyl]oxy}-2-(3-hydroxyisoxazol-5-yl)pyridinium trifluoroacetate], it took 0.8 nM to reach a half-maximal effect (EC50).

Molecule `Oc1cc(-c2cnc(O[C@H]3C[C@H](c4ccc(Cl)cc4)C3)nc2)on1` [Example 115, 5-(2-{[trans-3-(4-chlorophenyl)cyclobutyl]oxy}pyrimidin-5-yl)isoxazol-3-ol] showed an EC50 of 5.8 nM.
